As a reminder, the GI50 is the concentration that inhibits growth by half.

From ChEMBL document CHEMBL1201862, “PubChem BioAssay data set” (2004) come the findings set out here.

The structures appear in SMILES notation.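 Method: 48-hour compound exposure of cells in 96-well plates, five concentrations, linear interpolation of endpoints. GI50 = concentration required for 50% inhibition of growth.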 Activity calls are given as the source filed them. No stated cut-off is given here; in the data, active = GI50 up to about 1.1 µM and inactive = higher.

Common to all, as to test: DTP human tumour cell line panel, 48 h
Experiment [1] deals with A549.
In experiment [2] the test system is OVCAR-3.
The test system of experiment [3] is HL-60.
Experiment [4] deals with NCI-H226.
Experiment [5] concerns 786-0.
In experiment [6] the test system is OVCAR-4.
The test system of experiment [7] is BT-549.
Experiment [8] relates to UO-31.
Experiment [9] has as its system MDA-MB-231.
Experiment [10] has as its system RXF 393.
For experiment [11], the system named is SK-MEL-2.
For experiment [12], the system named is SN12C.
Experiment [13] has as its system MCF7.
The test system of experiment [14] is Malme-3M.
For experiment [15], the system named is CCRF-CEM.
Experiment [16] deals with SK-MEL-5.
For experiment [17], the system named is NCI-H23.
In experiment [18] the test system is K562.
In experiment [19] the test system is NCI/ADR-RES.
Experiment [20] concerns A498.

As for `CSC(SC)=C(C#N)C(=O)Nc1ccc(C)cc1`, the GI50 in [1] was > 100 µM (inactive); in experiment [2], > 100 µM (inactive); in experiment [3] it was 37.2 µM (inactive); in experiment [4], > 100 µM (inactive); in experiment [5], > 100 µM (inactive); in [6], > 100 µM (inactive). The GI50 in experiment [7] was > 100 µM (inactive); in experiment [8], 61 µM (inactive); in experiment [9], > 100 µM (inactive); in experiment [10], > 100 µM (inactive); in [11], > 100 µM (inactive); in experiment [12], > 100 µM (inactive). Also, the GI50 is 71.9 µM (inactive) in [13]; > 100 µM (inactive) in experiment [14]; 34.6 µM (inactive) in experiment [15]; > 100 µM (inactive) in [16]; > 100 µM (inactive) in experiment [17]; 75.3 µM (inactive) in experiment [18].

`CC1(CCC(=O)OC2CCCCC2)OCCO1`: the GI50 in experiment [1], in [2], in [3], in [19], in experiment [4] and in [5] was > 100 µM (inactive) in each case. Further, the GI50 in [6], in experiment [8], in experiment [20], in [9], in experiment [10] and in experiment [11] was > 100 µM (inactive) throughout. The GI50 in [12], in experiment [13], in experiment [14], in experiment [15], in experiment [16] and in experiment [17] was > 100 µM (inactive) throughout. Further, the GI50 in [18] is > 100 µM (inactive).

`COc1ccc(C(O)CC(O)(C(F)(F)F)C(F)(F)F)cc1` (stereo not given): the GI50 in experiment [1] is 21.5 µM (inactive); in [2], 22.2 µM (inactive); in [3], 18.7 µM (inactive); in [19] it was 19.4 µM (inactive); in [4], 23.2 µM (inactive); in experiment [5], 32.4 µM (inactive). In addition, the GI50 in experiment [6] is 32.6 µM (inactive); in experiment [8] it was 39.8 µM (inactive); in experiment [20], 21.9 µM (inactive); in experiment [9], 20 µM (inactive); in [10], 20.1 µM (inactive); in experiment [11], 17.6 µM (inactive). The GI50 in experiment [12] was 24.8 µM (inactive); in experiment [13], 61.4 µM (inactive); in experiment [14], 16.8 µM (inactive); in experiment [15], 20.8 µM (inactive); in [16] it was 21.2 µM (inactive); in [17], 19.5 µM (inactive). The GI50 in experiment [18] was 25.6 µM (inactive).

On to `CC(C)Oc1ccc(CNC2=NCCO2)c2ccccc12`, for which the GI50 in [1] was 15.4 µM (inactive); in experiment [3], 8.63 µM (inactive); in experiment [19], 12.3 µM (inactive); in [4], 15.7 µM (inactive); in experiment [5], 13.6 µM (inactive); in experiment [6], 13.9 µM (inactive). For the same compound, the GI50 in experiment [8] is 5.24 µM (inactive); in [20] it was 10.2 µM (inactive); in [9], 14.5 µM (inactive); in [10], 13.8 µM (inactive); in experiment [12], 17.3 µM (inactive); in [13], 14.1 µM (inactive). Besides, the GI50 in experiment [14] was 14.1 µM (inactive); in [15], 13.3 µM (inactive); in experiment [16], 12.9 µM (inactive); in experiment [17], 14.6 µM (inactive); in experiment [18], 4.57 µM (inactive).

On to `C=C(C)CNCCN`, for which the GI50 in experiment [1], in experiment [2], in experiment [3], in [19], in experiment [4] and in experiment [5] was > 100 µM (inactive) in each case. In addition, the GI50 in experiment [6], in [7], in experiment [8], in experiment [20], in experiment [9] and in experiment [10] was > 100 µM (inactive) throughout. In addition, the GI50 in [11], in [12], in experiment [14], in experiment [15], in [16] and in [17] was > 100 µM (inactive) each time. Also, the GI50 in [18] is > 100 µM (inactive).

Take `CC(C)(C)/C(O)=C\c1nc2cc(C(F)(F)F)ccc2[nH]c1=O`: the GI50 in [1] is > 100 µM (inactive); in [2] it was > 100 µM (inactive); in [3] it was 0.53 µM (active); in experiment [19], > 100 µM (inactive); in [4] it was > 100 µM (inactive); in experiment [5] it was > 100 µM (inactive). The GI50 in [6], in [7], in experiment [8], in experiment [20], in experiment [9] and in [10] was > 100 µM (inactive) throughout. Further, the GI50 in experiment [11] is > 100 µM (inactive); in experiment [12], > 100 µM (inactive); in [14] it was > 100 µM (inactive); in [15], 13.3 µM (inactive); in experiment [16], > 100 µM (inactive); in experiment [17] it was > 100 µM (inactive). The GI50 in [18] is 27.9 µM (inactive).

For `CC1=C(C)CC(C#N)(C#N)C(C#N)(C#N)C1`, the GI50 in [1] was > 10 µM (inactive); in experiment [2] it was > 5.52 µM (inactive); in experiment [3], 1.47 µM (inactive); in [19], > 10 µM (inactive); in [4], > 10 µM (inactive); in experiment [5] it was > 4.94 µM (inactive). Moreover, the GI50 in experiment [6] is > 8.04 µM (inactive); in [8], > 10 µM (inactive); in experiment [20], > 10 µM (inactive); in experiment [9], > 10 µM (inactive); in experiment [10] it was > 4.39 µM (inactive); in experiment [11], > 10 µM (inactive). In addition, the GI50 was > 9.12 µM (inactive) in [12]; > 5.65 µM (inactive) in experiment [13]; > 6.4 µM (inactive) in experiment [14]; 1.45 µM (inactive) in [15]; > 6.19 µM (inactive) in [16]; > 4.37 µM (inactive) in experiment [17]. Besides, the GI50 in experiment [18] was 2.2 µM (inactive).

`COC(=O)C1=C(O)C(C(=O)OC)[C@]2(O)[C@H](C(=O)OC)[C@H]1C[C@@H](c1ccccc1OC)[C@H]2C(=O)OC` (stereo not given in full): the GI50 is 3.85 µM (inactive) in [1]; 6.04 µM (inactive) in experiment [2]; 3.29 µM (inactive) in experiment [3]; 2.61 µM (inactive) in [19]; 5.4 µM (inactive) in [4]; 7.76 µM (inactive) in experiment [5]. Also, the GI50 in [6] is 4.95 µM (inactive); in [7], 3.15 µM (inactive); in experiment [8] it was 10 µM (inactive); in [20] it was 3.53 µM (inactive); in experiment [9] it was 9.55 µM (inactive); in experiment [10], 5.06 µM (inactive). In addition, the GI50 in experiment [11] was 6.03 µM (inactive); in experiment [12], 4.68 µM (inactive); in experiment [14], 2.83 µM (inactive); in experiment [15], 3.56 µM (inactive); in experiment [16], 3.64 µM (inactive); in experiment [17], 3.52 µM (inactive). For the same compound, the GI50 in experiment [18] was 4.38 µM (inactive).

On to `COc1c(C(CC(C)C)OC(C)=O)ccc2c1C(=O)OCc1cc(C)cc(O)c1O2` (stereo not given), for which the GI50 is 12.4 µM (inactive) in [1]; 10.5 µM (inactive) in [2]; > 100 µM (inactive) in experiment [3]; 12.5 µM (inactive) in experiment [19]; 14.9 µM (inactive) in experiment [4]; 15.5 µM (inactive) in experiment [5]. For the same compound, the GI50 was 13.9 µM (inactive) in experiment [6]; 16.2 µM (inactive) in experiment [7]; 6.95 µM (inactive) in experiment [8]; 20.3 µM (inactive) in [20]; 18.2 µM (inactive) in [10]; 19.1 µM (inactive) in experiment [11]. Further, the GI50 in experiment [12] is 14.2 µM (inactive); in [13], 11.8 µM (inactive); in experiment [14], 16.1 µM (inactive); in experiment [15], > 100 µM (inactive); in [16], 11.1 µM (inactive); in experiment [17], 10.3 µM (inactive). Further, the GI50 in [18] is > 100 µM (inactive).

Turning to `Cc1nc2c(sc3nc4c(cc32)CCC4)c(=O)o1`, the GI50 in [1] was > 50.5 µM (inactive); in experiment [2] it was 37.8 µM (inactive); in experiment [3], 49.9 µM (inactive); in experiment [19], > 56.1 µM (inactive); in [4] it was > 96.2 µM (inactive); in experiment [5], > 72.4 µM (inactive). For the same compound, the GI50 in experiment [6] is 32.4 µM (inactive); in experiment [8], > 56.1 µM (inactive); in experiment [20], > 100 µM (inactive); in experiment [9], > 92.5 µM (inactive); in [10], > 100 µM (inactive); in [11], > 100 µM (inactive). Besides, the GI50 was 98.2 µM (inactive) in experiment [12]; > 81.3 µM (inactive) in experiment [13]; 40.8 µM (inactive) in [15]; 37.5 µM (inactive) in [16]; 67.9 µM (inactive) in experiment [17]; 57.9 µM (inactive) in [18].

For `Fc1ccc(F)c(/C=N/C23CC4CC(CC(C4)C2)C3)c1`, the GI50 was > 10 µM (inactive) in [1]; > 10 µM (inactive) in [2]; 2.62 µM (inactive) in [3]; > 10 µM (inactive) in [19]; > 10 µM (inactive) in experiment [4]; > 10 µM (inactive) in experiment [5]. Moreover, the GI50 in experiment [6], in experiment [7], in experiment [8], in [20], in experiment [10] and in experiment [11] was > 10 µM (inactive) in each case. Also, the GI50 in experiment [12] is > 10 µM (inactive); in experiment [13], > 10 µM (inactive); in experiment [14], > 10 µM (inactive); in [15], 5.13 µM (inactive); in [16], > 10 µM (inactive); in experiment [17], > 10 µM (inactive). The GI50 in experiment [18] is 4.44 µM (inactive).
